Patent US20100197604A1, “USE OF PEPTIDE AS A THERAPEUTIC AGENT” (priority 2007, published 2010)

Test system: drug-resistant Mycobacterium tuberculosis
Conditions: drug-resistant Mycobacterium tuberculosis growth; peptide 10 micrograms per ml; seven days

Structure (SMILES): CC[C@H](C)[C@H](NC(=O)[C@H](Cc1ccc(O)cc1)NC(=O)[C@@H](NC(=O)[C@H](CCCNC(=N)N)NC(=O)[C@@H](N)CC(=O)O)C(C)C)C(=O)N[C@@H](Cc1c[nH]cn1)C(=O)N1CCC[C@H]1C(=O)N[C@@H](Cc1ccccc1)C(=O)O [Angiotensin II]
- % inhibition: 0.0%
